Test results taken from patent publication US7972831B2, “Lipases from thermophilic anaerobes” (Novozymes A/S, priority 2004, dated 2011).
Several values for one entry are separate records, joined by “and”; a condition that tells them apart may be missing. Equal entries are not always repeated. Structures can show the parent of a compound that is named as a salt.

Legend:
[1] = test system: lipase of SEQ ID NO: 2; assay: Enantioselectivity of ester hydrolysis; format: biochemical, Thermoanaerobacter thermohydrosulfuricus
Method: The (S)-alcohols were formed. The lipase was more enantioselective towards butynol butyrate than towards butynol acetate. Over time the conversion increased for all four substrates and reached above 20-30% after 24 h of reactions time. Over time in the contrast to the conversion the enantioselectivity of the enzyme towards both substrates decreased for butynol butyrate from 16.7 to 8.06 and for butynol acetate from 9.15 to 2.65 after 40 h of reactions time. […] For two other substrates the enantioselectivity of the lipase (E≧1) was constant over time.

[2] = test system: lipase; assay: Effects of metal ions on lipase activity; format: biochemical; details: metal ions up to 10 mM
Source text: The activity was decreased by the following ions: Zn2+, Fe2+, Fe3+ and Cr3+.

[3] = test system: lipase of SEQ ID NO: 2; assay: Effect of solvents on lipase activity; format: biochemical, Thermoanaerobacter thermohydrosulfuricus; details: solvent up to 50% by volume
[4] = test system: lipase of SEQ ID NO: 4; assay: Effect of inhibitors on lipase activity; format: biochemical, Caldanaerobacter subterraneus subsp. tengcongensis; details: for effect on the activity of the lipase: up to 10 mM; for inactivation of the lipase: 0.1-1 mM
[5] = test system: lipase of SEQ ID NO: 2; assay: Effect of inhibitors on lipase activity; format: biochemical, Thermoanaerobacter thermohydrosulfuricus; details: for effect on the activity of the lipase: up to 10 mM; for inactivation of the lipase: 0.1-1 mM
[6] = test system: lipase; assay: Effect of detergent ingredients on lipase activity; format: biochemical; details: 1.5 hours at 30° C., up to 10% by weight of compound
Method: The activity of the lipase was tested after incubation for 1.5 hours at 30° C. with up to 10% by weight of various compounds.

[7] = test system: lipase of SEQ ID NO: 2; assay: Substrate specificity with triacylglycerols; format: biochemical, Thermoanaerobacter thermohydrosulfuricus; details: triacylglycerol 10 mM, pH 8.0, 25 h at 70° C.
Method: The lipase of SEQ ID NO: 2 was tested by reaction with various triacylglycerols 10 mM (pH 8.0) as substrates: for 25 h at 70° C. Similar results were obtained with the lipase of SEQ ID NO: 4.

[8] = test system: lipase from T. thermohydrosulfuricum (SEQ ID NO: 2); assay: Alcoholysis of triacylglycerols (positional specificity towards triglycerides); format: biochemical, Thermoanaerobacter thermohydrosulfuricus; details: for DG 1,2- 2,3- / DG 1,3- / FA (fatty acid) / MG 1- 3- / TG (remaining substrate): alcoholysis with ethanol in acetone, 7 h at 65° C.
Method: Alcoholysis of various triacylglycerols catalyzed by the lipase of SEQ ID NO: 2 were tested. All substrates were alcoholyzed by the lipase. […] For other substrates the conversions were above 40%. The lipase catalysed the synthesis of 1,3-diacylglycerides and 1- and 3-monoacylglycerides from triacylglycerides at highest rate. No sn2-monoglyceride was produced. […] With the length of the ester bonds the 2-positional specificity of the protein increased.
The positional specificity of the lipase from T. thermohydrosulfuricum (SEQ ID NO: 2) was tested towards the following triglycerides (TG, triacylglycerols): trilaurin (C12), trimyristin (C14), tripalmitin (C16), tristearin (C18), Triolein (C18:1). Each TG (3 mmol) was dissolved in organic solvent (2 ml acetone) and pre-equilibrated at 65° C. for 15 min, 400 rpm. Dry ethanol (3 mmol) was added and reaction mixture was incubated at 65° C. for 15 min, 400 rpm. Lipase (10% based on TG weight) was added to start reaction. Reaction was carried out in a 4-ml screw-capped vial and the reaction mixture was mixed with magnetic stirrer (400 rpm). Aliquot amount of reaction mixture (20 μl) was periodically withdrawn and diluted with chloroform (80 μl) to appropriate dilution, followed by analysis with latroscan to determine acylglycerol composition.
Changes in glycerides composition of the reaction medium during reaction were quantitatively determined by TLC/FID using latroscan analytical methods (latroscan, latron Laboratories, Inc., Tokyo, Japan). Before analysis, a blank of the chromarod was scanned. After treating chromarod with boric acid (3%) and drying for 5 min, 0.1 μl of the reaction medium (diluted in chloroform at appropriate dilution) is spotted onto the chromarod and the spotted sample was developed for 10 cm in a mixture of benzene:chloroform:acetic acid (50:30:0.5, by vol) for 35 min. After drying, the chromarod in an oven at 110° C. for 5 min, scanning is performed at a hydrogen flow rate of 160 ml/min and an air flow rate of 2.01/min to produce a chromatogram.
The results of the alcoholysis of the triacylglycerols catalysed by the lipase from […] after 7 h reactions time at 65° C. are given below as % of remaining substrate (TG) and % of the following products: fatty acid (FA), diglycerides (DG, with 1,3-DG separated from 1,2- and 2,3-DG), monoglyceride (MG, with 2-MG separated from 1- and 3-MG).

[9] = test system: lipase of SEQ ID NO: 2; assay: Substrate specificity for pNP-esters; format: biochemical, Thermoanaerobacter thermohydrosulfuricus; details: pNP-ester 1 mM, pH 8.0, 10 min at 70° C.

CC(=O)OC(C)c1ccccc1 (centres unmarked) [1-phenyl-1-ethyl-acetate]
lipase activity towards substrate [1]: active

CC(=O)OC(C)Cc1ccccc1 (centres unmarked) [1-phenyl-2-propyl-acetate]
lipase activity towards substrate [1]: active

[Ag+] [Ag+]
lipase activity in the presence of metal ions [2]: nearly unchanged

[Al+3] [Al3+]
lipase activity in the presence of metal ions [2]: nearly unchanged

[Ca+2] [Ca2+]
lipase activity in the presence of metal ions [2]: nearly unchanged

[Co+2] [Co2+]
lipase activity in the presence of metal ions [2]: nearly unchanged

[Cr+3] [Cr3+]
lipase activity in the presence of metal ions [2]: decreased

[Cu+2] [Cu2+]
lipase activity in the presence of metal ions [2]: nearly unchanged

C[S+](C)[O-] [DMSO]
effect on the activity of the lipase [3]: little effect

O[C@@H](CS)[C@@H](O)CS [DTT]
effect on the activity of the lipase [4]: little effect
effect on the activity of the lipase [5]: little effect

[Fe+2] [Fe2+]
lipase activity in the presence of metal ions [2]: decreased

[Fe+3] [Fe3+]
lipase activity in the presence of metal ions [2]: decreased

[K+] [K+]
lipase activity in the presence of metal ions [2]: nearly unchanged

[Mg+2] [Mg2+]
lipase activity in the presence of metal ions [2]: nearly unchanged

[Mn+2] [Mn2+]
lipase activity in the presence of metal ions [2]: nearly unchanged

[Na+] [Na+]
lipase activity in the presence of metal ions [2]: nearly unchanged

[Ni+2] [Ni2+]
lipase activity in the presence of metal ions [2]: nearly unchanged

O=S(=O)(F)Cc1ccccc1 [PMSF]
inactivation of the lipase [4]: inactivated
inactivation of the lipase [5]: inactivated

NCCc1ccc(S(=O)(=O)F)cc1 [Pefablock]
inactivation of the lipase [4]: inactivated
inactivation of the lipase [5]: inactivated

[Rb+] [Rb+]
lipase activity in the presence of metal ions [2]: nearly unchanged

CCCCCCCCCCCCOS(=O)(=O)[O-].[Na+] [SDS]
effect on activity after incubation [6]: full enzyme inhibition

[Sr+2] [Sr2+]
lipase activity in the presence of metal ions [2]: nearly unchanged

CC(=O)OCC(COC(C)=O)OC(C)=O [Triacetin, Triacetin (C2:0)]
Relative activity [7]: 5

CCCC(=O)OCC(COC(=O)CCC)OC(=O)CCC [Tributyrin, Tributyrin (C4:0)]
Relative activity [7]: 10

CCCCCCCCCC(=O)OCC(COC(=O)CCCCCCCCC)OC(=O)CCCCCCCCC [Tricaprin, Tricaprin (C10:0)]
Relative activity [7]: 15

CCCCCC(=O)OCC(COC(=O)CCCCC)OC(=O)CCCCC [Tricaproin, Tricaproin (C6:0)]
Relative activity [7]: 74

CCCCCCCC(=O)OCC(COC(=O)CCCCCCC)OC(=O)CCCCCCC [Tricaprylin, Tricaprylin (C8:0)]
Relative activity [7]: 100

CCCCCCCCCCCC(=O)OCC(COC(=O)CCCCCCCCCCC)OC(=O)CCCCCCCCCCC [Trilaurin, Trilaurin (C12:0)]
DG 1,2- 2,3- [8]: 6%
DG 1,3- [8]: 12%
FA (fatty acid) [8]: 2%
MG 1- 3- [8]: 22%
TG (remaining substrate) [8]: 58%
Relative activity [7]: 11

CCCCCCCCCCCCCC(=O)OCC(COC(=O)CCCCCCCCCCCCC)OC(=O)CCCCCCCCCCCCC [Trimyristin, Trimyristin (C14:0)]
DG 1,2- 2,3- [8]: 2%
DG 1,3- [8]: 12%
FA (fatty acid) [8]: 1%
MG 1- 3- [8]: 19%
TG (remaining substrate) [8]: 66%
Relative activity [7]: 8

CCCCCCCCCCCCCCCC(=O)OCC(COC(=O)CCCCCCCCCCCCCCC)OC(=O)CCCCCCCCCCCCCCC [Tripalmitin, Tripalmitin (C16:0)]
DG 1,2- 2,3- [8]: 1%
DG 1,3- [8]: 13%
FA (fatty acid) [8]: 3%
MG 1- 3- [8]: 18%
TG (remaining substrate) [8]: 65%
Relative activity [7]: 22

CCCCCCCCCCCCCCCCCC(=O)OCC(COC(=O)CCCCCCCCCCCCCCCCC)OC(=O)CCCCCCCCCCCCCCCCC [Tristearin, Tristearin (C18:0)]
conversion ([8]; alcoholysis of triacylglycerol): 67%
DG 1,3- [8]: 48%
FA (fatty acid) [8]: 10%
MG 1- 3- [8]: 9%
TG (remaining substrate) [8]: 33%
Relative activity [7]: 9

[Zn+2] [Zn2+]
lipase activity in the presence of metal ions [2]: decreased

CC(C)=O [acetone]
effect on the activity of the lipase [3]: little effect

CC#N [acetonitrile]
effect on the activity of the lipase [3]: little effect

OCCS [b-mercaptoethanol]
effect on the activity of the lipase [4]: little effect
effect on the activity of the lipase [5]: little effect

CN(C)C=O [dimethylformamide]
effect on the activity of the lipase [3]: little effect

CCO [ethanol]
effect on the activity of the lipase [3]: little effect

N=C(N)N [guanidine hydrochloride]
effect on the activity of the lipase [4]: little effect
effect on the activity of the lipase [5]: little effect

O=C(O)CI [iodo-acetate]
effect on the activity of the lipase [4]: little effect
effect on the activity of the lipase [5]: little effect

CC(C)O [isopropanol]
effect on the activity of the lipase [3]: little effect

CO [methanol]
effect on the activity of the lipase [3]: little effect

O=C(O)c1cc[c]([Hg][OH])cc1 [pHMB]
effect on the activity of the lipase [4]: little effect
effect on the activity of the lipase [5]: little effect

CC(=O)Oc1ccc([N+](=O)[O-])cc1 [pNP-acetate, pNP-acetate (C2:0)]
Relative activity [9]: 9

CCCC(=O)Oc1ccc([N+](=O)[O-])cc1 [pNP-butyrate, pNP-butyrate (C4:0)]
Relative activity [9]: 57

CCCCCCCCCC(=O)Oc1ccc([N+](=O)[O-])cc1 [pNP-caprate, pNP-caprate (C10:0)]
Relative activity [9]: 100

CCCCCC(=O)Oc1ccc([N+](=O)[O-])cc1 [pNP-caproate, pNP-caproate (C6:0)]
Relative activity [9]: 81

CCCCCCCC(=O)Oc1ccc([N+](=O)[O-])cc1 [pNP-caprylate, pNP-caprylate (C8:0)]
Relative activity [9]: 90

CCCCCCCCCCCC(=O)Oc1ccc([N+](=O)[O-])cc1 [pNP-laurate, pNP-laurate (C12:0)]
Relative activity [9]: 84

CCCCCCCCCCCCCC(=O)Oc1ccc([N+](=O)[O-])cc1 [pNP-myristate, pNP-myristate (C14:0)]
Relative activity [9]: 68

CCCCCCCCCCCCCCCC(=O)Oc1ccc([N+](=O)[O-])cc1 [pNP-palmitate, pNP-palmitate (C16:0)]
Relative activity [9]: 32

CCCCCCCCCCCCCCCCCC(=O)Oc1ccc([N+](=O)[O-])cc1 [pNP-stearate, pNP-stearate (C18:0)]
Relative activity [9]: 8

c1ccncc1 [pyridine]
effect on the activity of the lipase [3]: little effect

CC(C)(C)O [tert-butanol]
effect on the activity of the lipase [3]: little effect

NC(N)=O [urea]
effect on the activity of the lipase [4]: little effect
effect on the activity of the lipase [5]: little effect

Triolein (C18:1)
DG 1,3- [8]: 18%
FA (fatty acid) [8]: 2%
MG 1- 3- [8]: 17%
TG (remaining substrate) [8]: 63%
Relative activity [7]: 12

butynol acetate
enantiopreference [1]: (S)-preference
lipase activity towards substrate [1]: active
E-value (enantioselectivity) ([1]; after 40 h of reactions time): 2.65
E-value (enantioselectivity) ([1]; initial value): 9.2 and 9.15

butynol butyrate
enantiopreference [1]: (S)-preference
lipase activity towards substrate [1]: active
E-value (enantioselectivity) ([1]; after 40 h of reactions time): 8.06
E-value (enantioselectivity) ([1]; initial value): 16.7
